These results are taken from patent publication US20170166598A1, “HETEROARYL COMPOUNDS FOR KINASE INHIBITION” (ARIAD PHARMACEUTICALS, INC., priority 2014, published 2017).

What all share (assay type): cell-based
The target in test [1] is T1, Her2 exon 20 YVMA insertion (A775_G776ins YVMA) (Homo sapiens, UniProt P04626, INS775YVMA).
T1 construct: expressed in transfected cells; host or cells: Ba/F3 (murine pro-B) cells transduced with lentivirus from pLVX-IRES puro
In words: Ba/F3-Her2 Exon20 YVMA cell anti-proliferative assay (CellTiter 96 MTS, 72 h). The conditions noted are these: Ba/F3-Her2 Exon20 YVMA cells. A digest of the protocol:
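Anti-proliferation: compound series (top 10,000 nM, 4-fold steps) was applied to Ba/F3-Her2 Exon20 YVMA cells grown without IL-3 for 72 h. Viability was read colorimetrically (CellTiter 96 Aqueous One, A490, 2 h reagent incubation).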

For test [2], the target named is T2, human EGFR exon 20 insertion NPG (H773_V774insNPG) (Homo sapiens, UniProt P00533, INS772GNP).
T2 construct: expressed in transfected cells; host or cells: Ba/F3 (murine pro-B) cells transduced with lentivirus from pLVX-IRES puro
The test is described as follows: Ba/F3-EGFR-Exon20-NPG cell anti-proliferative assay (CellTiter 96 MTS, 72 h). The note with it: Ba/F3-EGFR-Exon20-NPG cells. A digest of the protocol: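 Viable-cell readout used absorbance at 490 nm of MTS-derived formazan, 2 h after reagent addition, following 72 h compound treatment at 37 °C, 5% CO2. Cells: puromycin-selected, IL-3-depleted Ba/F3 expressing EGFR exon 20 ASV or NPG; dosing 4-fold series from 10,000 nM.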

Test [3] has as its target T3, human EGFR E746-A750 deletion and T790M Mutation (Homo sapiens, UniProt P00533, DEL746-750/T790M).
T3 construct: expressed in transfected cells; host or cells: Ba/F3 (murine pro-B) cells transduced with lentivirus from pLVX-IRES puro
In words: Ba/F3-EGFR-Del/T790M cell anti-proliferative assay (CellTiter 96 MTS, 72 h). The note with it: Ba/F3-EGFR-Del/T790M cells. A digest of the protocol: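 Compound exposure: 72 h, 37 °C, 4-fold series topping at 10,000 nM. Target cells are Ba/F3 transduced with EGFR exon 19 deletion plus T790M, selected by puromycin and IL-3 withdrawal. Viable cell number inferred from MTS metabolic conversion, A490 read 2 h after reagent addition.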

The target of test [4] is T4, human EGFR exon 20 insertion ASV (V769_D770insASV) (Homo sapiens, UniProt P00533, INS769ASV).
T4 construct: expressed in transfected cells; host or cells: Ba/F3 (murine pro-B) cells transduced with lentivirus from pLVX-IRES puro
In words: Ba/F3-EGFR-Exon20-ASV cell anti-proliferative assay (CellTiter 96 MTS, 72 h). The conditions noted are these: Ba/F3-EGFR-Exon20-ASV cells. On the procedure:
An expression vector, pLVX-IRES puro (Clontech) coding for human EGFR exon 20 insertions NPG (H773_V774insNPG) or ASV (V769_D770insASV), was transfected into HEK293 cells by the Trans-Lentiviral ORF Packaging System (Thermo Scientific), to produce virus encoding EGFR exon 20 insertions. Ba/F3 (DSMZ) cells maintained in RPMI 1640 medium supplemented with 10% fetal bovine serum, 200 μM L-glutamine/l 200 μg/mL penicillin/200 μg/mL streptomycin (Life Technology) and 10 ng/mL IL-3 (R&D system), were infected by EGFR Exon20 virus and subsequently selected by puromycin (Life Technology) selection and IL-3 depletion. […] The anti-proliferative activity of compounds were determined as follows: BaF3-EGFR-Exon20 cells (NPG or ASV) seeded in 96 well plates (2500 cells/well) were treated with test compound (dissolved in DMSO) at a series of concentrations (4-fold dilution, top concentration: 10,000 nM). The plates were incubated for 72 h in a 37° C. incubator with 5% CO2, and the number of viable cells in each well were measured indirectly by CellTiter 96® Aqueous One Solution Cell Proliferation Assay (Promega) This assay is a colorimetric method for determining the number of viable cells through measurement of their metabolic activity by detection of enzymatic conversion of tetrazolium salts into blue formazan derivatives. Reagent (20 μL) was added into each well, and the plates were returned to the incubator for 2 h. The absorbance in each well was then measured at 490 nm using an Envision plate reader (Perkin Elmer).

T3 sequence (P00533 with tags, fused parts or gaps DEL746-750/T790M): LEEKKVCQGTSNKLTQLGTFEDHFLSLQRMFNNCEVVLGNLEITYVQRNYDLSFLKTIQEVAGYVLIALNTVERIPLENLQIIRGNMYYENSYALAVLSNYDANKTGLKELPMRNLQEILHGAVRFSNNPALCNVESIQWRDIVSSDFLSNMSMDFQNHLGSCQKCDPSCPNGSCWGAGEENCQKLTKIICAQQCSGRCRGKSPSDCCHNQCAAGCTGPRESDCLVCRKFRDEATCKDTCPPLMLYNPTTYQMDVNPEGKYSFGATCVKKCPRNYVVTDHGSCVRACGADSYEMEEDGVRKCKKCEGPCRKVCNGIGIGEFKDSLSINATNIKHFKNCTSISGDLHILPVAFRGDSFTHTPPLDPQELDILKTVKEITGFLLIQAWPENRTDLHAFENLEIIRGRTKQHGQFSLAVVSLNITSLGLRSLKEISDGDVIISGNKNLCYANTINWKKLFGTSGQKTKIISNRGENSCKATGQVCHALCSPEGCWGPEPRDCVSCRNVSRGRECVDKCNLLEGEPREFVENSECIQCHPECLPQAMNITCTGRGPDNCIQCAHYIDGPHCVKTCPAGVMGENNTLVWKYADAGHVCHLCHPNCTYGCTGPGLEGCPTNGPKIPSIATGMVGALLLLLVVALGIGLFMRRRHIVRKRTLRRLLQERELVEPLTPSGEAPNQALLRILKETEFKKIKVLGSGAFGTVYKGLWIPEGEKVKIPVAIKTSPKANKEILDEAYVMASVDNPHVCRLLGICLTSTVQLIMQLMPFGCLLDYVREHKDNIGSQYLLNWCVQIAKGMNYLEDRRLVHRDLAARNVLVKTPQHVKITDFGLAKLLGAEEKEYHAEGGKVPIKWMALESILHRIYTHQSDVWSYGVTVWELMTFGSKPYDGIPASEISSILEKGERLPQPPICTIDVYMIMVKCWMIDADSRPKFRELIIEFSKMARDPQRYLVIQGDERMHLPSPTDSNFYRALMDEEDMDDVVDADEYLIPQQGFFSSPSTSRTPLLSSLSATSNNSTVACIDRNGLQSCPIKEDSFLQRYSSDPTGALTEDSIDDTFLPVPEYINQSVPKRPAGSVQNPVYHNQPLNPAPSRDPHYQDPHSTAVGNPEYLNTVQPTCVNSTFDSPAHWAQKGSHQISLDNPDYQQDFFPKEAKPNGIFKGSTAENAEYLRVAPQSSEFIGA
T4 sequence (P00533 with tags, fused parts or gaps INS769ASV): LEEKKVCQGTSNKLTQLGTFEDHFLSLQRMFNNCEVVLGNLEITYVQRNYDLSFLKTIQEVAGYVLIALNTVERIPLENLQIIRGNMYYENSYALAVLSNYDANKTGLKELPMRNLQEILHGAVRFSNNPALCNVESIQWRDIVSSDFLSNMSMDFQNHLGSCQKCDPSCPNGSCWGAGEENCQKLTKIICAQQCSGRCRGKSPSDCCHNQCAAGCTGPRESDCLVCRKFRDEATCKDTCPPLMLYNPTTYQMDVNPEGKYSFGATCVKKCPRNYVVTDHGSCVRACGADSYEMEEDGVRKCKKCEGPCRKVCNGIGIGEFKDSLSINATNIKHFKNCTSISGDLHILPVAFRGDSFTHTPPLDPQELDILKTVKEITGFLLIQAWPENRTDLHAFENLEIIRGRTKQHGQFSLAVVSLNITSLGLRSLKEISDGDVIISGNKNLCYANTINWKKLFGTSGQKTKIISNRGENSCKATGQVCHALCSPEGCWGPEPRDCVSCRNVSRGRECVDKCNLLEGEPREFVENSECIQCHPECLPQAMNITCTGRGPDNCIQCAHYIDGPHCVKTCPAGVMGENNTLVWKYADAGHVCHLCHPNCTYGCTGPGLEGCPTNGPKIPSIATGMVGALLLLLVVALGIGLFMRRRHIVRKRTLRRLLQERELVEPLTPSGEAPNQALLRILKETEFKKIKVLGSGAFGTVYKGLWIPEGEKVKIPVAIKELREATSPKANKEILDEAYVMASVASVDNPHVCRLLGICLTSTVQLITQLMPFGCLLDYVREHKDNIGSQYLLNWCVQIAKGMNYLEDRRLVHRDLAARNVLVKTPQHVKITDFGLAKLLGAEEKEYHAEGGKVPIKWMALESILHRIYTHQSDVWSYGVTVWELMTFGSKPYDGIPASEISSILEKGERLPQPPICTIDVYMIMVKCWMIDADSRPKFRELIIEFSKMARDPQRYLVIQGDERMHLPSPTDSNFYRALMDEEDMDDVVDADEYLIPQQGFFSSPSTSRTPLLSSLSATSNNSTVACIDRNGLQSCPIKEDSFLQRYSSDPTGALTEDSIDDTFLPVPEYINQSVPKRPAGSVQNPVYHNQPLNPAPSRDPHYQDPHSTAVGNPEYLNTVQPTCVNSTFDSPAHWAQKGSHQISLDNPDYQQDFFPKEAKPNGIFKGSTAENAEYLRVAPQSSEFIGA
T1 sequence (P04626 with tags, fused parts or gaps INS775YVMA): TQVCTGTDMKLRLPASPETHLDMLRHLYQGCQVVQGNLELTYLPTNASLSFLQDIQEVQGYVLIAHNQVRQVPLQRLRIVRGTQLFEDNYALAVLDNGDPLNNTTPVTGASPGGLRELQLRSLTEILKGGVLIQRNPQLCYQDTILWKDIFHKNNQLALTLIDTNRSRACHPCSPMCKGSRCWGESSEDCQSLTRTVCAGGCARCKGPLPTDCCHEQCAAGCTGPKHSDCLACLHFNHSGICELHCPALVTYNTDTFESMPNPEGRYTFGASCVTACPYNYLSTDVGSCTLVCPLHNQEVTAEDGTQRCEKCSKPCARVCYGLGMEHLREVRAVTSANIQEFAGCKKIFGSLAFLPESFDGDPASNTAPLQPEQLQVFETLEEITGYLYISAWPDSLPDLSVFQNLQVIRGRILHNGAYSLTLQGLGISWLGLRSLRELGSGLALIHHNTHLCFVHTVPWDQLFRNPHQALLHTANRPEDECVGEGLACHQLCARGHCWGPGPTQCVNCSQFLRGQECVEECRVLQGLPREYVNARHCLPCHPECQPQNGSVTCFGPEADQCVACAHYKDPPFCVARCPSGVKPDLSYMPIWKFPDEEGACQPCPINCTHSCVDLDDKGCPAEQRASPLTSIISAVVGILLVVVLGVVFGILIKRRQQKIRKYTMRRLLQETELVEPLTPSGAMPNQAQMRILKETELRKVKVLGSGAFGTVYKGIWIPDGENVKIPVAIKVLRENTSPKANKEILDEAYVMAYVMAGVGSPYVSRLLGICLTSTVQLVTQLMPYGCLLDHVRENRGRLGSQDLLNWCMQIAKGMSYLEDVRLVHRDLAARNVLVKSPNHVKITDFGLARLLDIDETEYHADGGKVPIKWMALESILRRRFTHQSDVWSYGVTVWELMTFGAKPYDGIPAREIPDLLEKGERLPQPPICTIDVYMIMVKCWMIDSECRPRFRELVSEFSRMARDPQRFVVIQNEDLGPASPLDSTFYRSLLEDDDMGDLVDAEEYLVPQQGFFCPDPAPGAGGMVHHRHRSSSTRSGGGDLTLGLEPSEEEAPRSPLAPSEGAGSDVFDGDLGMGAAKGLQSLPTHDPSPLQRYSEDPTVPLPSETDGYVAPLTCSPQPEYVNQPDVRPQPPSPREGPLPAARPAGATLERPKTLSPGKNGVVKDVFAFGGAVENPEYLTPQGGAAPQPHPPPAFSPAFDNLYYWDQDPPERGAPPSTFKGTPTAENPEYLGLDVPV
T2 sequence (P00533 with tags, fused parts or gaps INS772GNP): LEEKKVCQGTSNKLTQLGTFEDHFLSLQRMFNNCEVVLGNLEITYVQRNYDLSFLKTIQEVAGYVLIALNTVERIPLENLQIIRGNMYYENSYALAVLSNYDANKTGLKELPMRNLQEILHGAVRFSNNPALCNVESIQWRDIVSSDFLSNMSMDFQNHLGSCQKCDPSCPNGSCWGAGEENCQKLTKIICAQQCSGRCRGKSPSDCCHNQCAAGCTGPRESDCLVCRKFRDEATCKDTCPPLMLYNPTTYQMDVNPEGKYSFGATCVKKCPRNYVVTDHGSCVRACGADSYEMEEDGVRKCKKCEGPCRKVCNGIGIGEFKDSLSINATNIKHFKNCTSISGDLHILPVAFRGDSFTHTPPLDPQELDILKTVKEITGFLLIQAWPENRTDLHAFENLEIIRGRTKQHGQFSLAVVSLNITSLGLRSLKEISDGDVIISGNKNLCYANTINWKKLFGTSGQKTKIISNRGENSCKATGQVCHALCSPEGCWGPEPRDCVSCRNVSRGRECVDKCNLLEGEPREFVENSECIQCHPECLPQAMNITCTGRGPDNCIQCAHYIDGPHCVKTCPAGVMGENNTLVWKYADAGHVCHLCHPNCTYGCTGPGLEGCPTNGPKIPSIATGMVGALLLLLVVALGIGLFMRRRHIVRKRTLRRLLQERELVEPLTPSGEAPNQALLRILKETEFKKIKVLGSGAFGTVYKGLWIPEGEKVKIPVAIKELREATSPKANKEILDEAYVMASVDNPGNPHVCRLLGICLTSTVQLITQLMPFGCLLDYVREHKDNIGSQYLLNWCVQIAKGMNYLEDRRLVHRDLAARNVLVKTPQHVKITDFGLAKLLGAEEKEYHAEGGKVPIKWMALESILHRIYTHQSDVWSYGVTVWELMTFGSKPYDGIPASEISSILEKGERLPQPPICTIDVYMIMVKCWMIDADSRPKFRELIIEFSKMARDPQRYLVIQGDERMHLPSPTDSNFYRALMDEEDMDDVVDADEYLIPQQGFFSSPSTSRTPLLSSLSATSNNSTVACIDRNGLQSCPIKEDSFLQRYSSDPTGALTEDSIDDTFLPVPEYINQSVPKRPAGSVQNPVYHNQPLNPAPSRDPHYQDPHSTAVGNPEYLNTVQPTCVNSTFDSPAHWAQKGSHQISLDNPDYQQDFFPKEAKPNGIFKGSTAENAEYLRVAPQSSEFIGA

As to `C=CC(=O)Nc1cc(Nc2ncc(CCC3CCCC3)c(-c3cn4c5c(cccc35)CCC4)n2)c(OC)cc1N(C)CCN(C)C` [Example 35], the IC50 in test [1] lay within 0.5 to 1 µM; in test [2], 0.1 to 0.5 µM; in test [4], 0.5 to 1 µM. The “EGFR exon 19 deletion and exon 20 T790M mutation IC50” value in test [3] is reported as “C (IC50 value for the indicated mutant between greater than about 500 to about 1 μM)”.
For the compound `C=CC(=O)Nc1cc(Nc2ncc(OC(F)F)c(-c3cn4c5c(cccc35)CCC4)n2)c(OC)cc1N(C)CCN(C)C` [Example 64, N-(5-((5-(difluoromethoxy)-4-(5,6-dihydro-4H-pyrrolo[3,2,1-ij]quinolin-1-yl)pyrimidin-2-yl)amino)-2-((2-(dimethylamino)ethyl)-(methyl)amino)-4-methoxyphenyl)acrylamide], the IC50 in test [1] is 0.1 to 0.5 µM; in test [2], < 0.1 µM; in test [4], < 0.1 µM. For the same compound, the “EGFR exon 19 deletion and exon 20 T790M mutation IC50” value in test [3] was “A (IC50 value for the indicated mutant below about 100 nM)”.
As to `C=CC(=O)Nc1cc(Nc2ncc(C(=O)CC)c(-c3cn4c5c(cccc35)CCC4)n2)c(OC)cc1N(C)CCN(C)C` [Example 88], the half-inhibitory concentration (IC50) in test [1], in test [2] and in test [4] was < 0.1 µM throughout. Besides, in test [3], the “EGFR exon 19 deletion and exon 20 T790M mutation IC50” value was “A (IC50 value for the indicated mutant below about 100 nM)”.
Turning to `C=CC(=O)Nc1cc(Nc2ncc(-c3nnco3)c(-c3cn4c5c(cccc35)CCC4)n2)c(OC)cc1N(C)CCN(C)C` [Example 71, N-(5-((4-(5,6-dihydro-4H-pyrrolo[3,2,1-ij]quinolin-1-yl)-5-(1,3,4-oxadiazol-2-yl)pyrimidin-2-yl)amino)-2-((2-(dimethylamino)ethyl)(methyl)amino)-4-methoxyphenyl)acrylamide], the IC50 in test [1], in test [2] and in test [4] was < 0.1 µM each time. Further, the “EGFR exon 19 deletion and exon 20 T790M mutation IC50” value in test [3] is on record as “A (IC50 value for the indicated mutant below about 100 nM)”.
For `C=CC(=O)Nc1cc(Nc2ncc(-c3cc(C)nn3C)c(-c3cn4c5c(cccc35)CCC4)n2)c(OC)cc1N(C)CCN(C)C` [Example 101], the IC50 in test [1], in test [2] and in test [4] was < 0.1 µM in each case. The “EGFR exon 19 deletion and exon 20 T790M mutation IC50” value in test [3] is on record as “A (IC50 value for the indicated mutant below about 100 nM)”.
In the case of `C=CC(=O)Nc1cc(Nc2ncc(Cl)c(-c3cn4c5c(cccc35)OCC4)n2)c(OC)cc1N(C)C1CCN(C)C1` (stereo not shown) [Example 9, N-(5-((5-chloro-4-(2,3-dihydro-[1,4]oxazino[2,3,4-hi]indol-6-yl)pyrimidin-2-yl)amino)-4-methoxy-2-(methyl(1-methylpyrrolidin-3-yl)amino)phenyl)acrylamide], the IC50 is 0.5 to 1 µM in test [1], < 0.1 µM in test [2] and 0.1 to 0.5 µM in test [4]. The “EGFR exon 19 deletion and exon 20 T790M mutation IC50” value in test [3] is “A (IC50 value for the indicated mutant below about 100 nM)”.
Consider `COc1cc(F)c(NC(=O)/C=C/CN(C)C)cc1Nc1ncc(Cl)c(-c2cn3c4c(cccc24)OCC3)n1` [Example 82, (E)-N-(5-((5-chloro-4-(2,3-dihydro-[1,4]oxazino[2,3,4-hi]indol-6-yl)pyrimidin-2-yl)amino)-2-fluoro-4-methoxyphenyl)-4-(dimethylamino)but-2-enamide], for which the IC50 was > 1 µM in test [1], 0.1 to 0.5 µM in test [2] and 0.5 to 1 µM in test [4]. Besides, in test [3], the “EGFR exon 19 deletion and exon 20 T790M mutation IC50” value is listed as “A (IC50 value for the indicated mutant below about 100 nM)”.
Consider `C=CC(=O)Nc1cc(Nc2ncc(C(=O)OC(C)C)c(-c3cn4c5c(cccc35)CCC4)n2)c(OC)cc1N(C)CCN(C)C` [Example 103], for which the IC50 in test [1], in test [2] and in test [4] was < 0.1 µM each time. For the same compound, the “EGFR exon 19 deletion and exon 20 T790M mutation IC50” value in test [3] is reported as “A (IC50 value for the indicated mutant below about 100 nM)”.
For the compound `C=CC(=O)Nc1cc(Nc2ncc(CCCOC)c(-c3cn4c5c(cccc35)CCC4)n2)c(OC)cc1N(C)CCN(C)C` [Example 33, N-(5-((4-(5,6-dihydro-4H-pyrrolo[3,2,1-ij]quinolin-1-yl)-5-(3-methoxypropyl)pyrimidin-2-yl)amino)-2-((2-(dimethylamino)ethyl)(methyl)amino)-4-methoxyphenyl)acrylamide], the IC50 in test [1], in test [2] and in test [4] was < 0.1 µM each time. The “EGFR exon 19 deletion and exon 20 T790M mutation IC50” value in test [3] is “A (IC50 value for the indicated mutant below about 100 nM)”.
On to `C=CC(=O)Nc1cc(Nc2nccc(-c3c(N4CCC(F)C4)n4c5c(cccc35)CCC4)n2)c(OC)cc1N(C)CCN(C)C` (stereo not shown) [Example 92], for which the IC50 is 0.1 to 0.5 µM in test [1], < 0.1 µM in test [2] and < 0.1 µM in test [4]. In addition, in test [3], the “EGFR exon 19 deletion and exon 20 T790M mutation IC50” value was “A (IC50 value for the indicated mutant below about 100 nM)”.
As for `C=CC(=O)Nc1cc(Nc2ncc(-c3ccnn3C)c(-c3cn4c5c(cccc35)CCC4)n2)c(OC)cc1N(C)CCN(C)C` [Example 53, N-(5-((4-(5,6-dihydro-4H-pyrrolo[3,2,1-ij]quinolin-1-yl)-5-(1-methyl-1H-pyrazol-5-yl)pyrimidin-2-yl)amino)-2-((2-(dimethylamino)ethyl)(methyl)amino)-4-methoxyphenyl)acrylamide], the IC50 in test [1], in test [2] and in test [4] was < 0.1 µM throughout. For the same compound, the “EGFR exon 19 deletion and exon 20 T790M mutation IC50” value in test [3] is “A (IC50 value for the indicated mutant below about 100 nM)”.
Regarding `C=CC(=O)Nc1cc(Nc2ncc(C(=O)OC)c(-c3nn4c5c(cccc35)OCC4)n2)c(OC)cc1N(C)CCN(C)C` [Example 65, Methyl 2-((5-acrylamido-4-((2-(dimethylamino)ethyl)(methyl)amino)-2-methoxyphenyl)amino)-4-(2,3-dihydro-[1,4]oxazino[2,3,4-hi]indazol-6-yl)pyrimidine-5-carboxylate], the half-inhibitory concentration (IC50) in test [1], in test [2] and in test [4] was < 0.1 µM throughout. Further, the “EGFR exon 19 deletion and exon 20 T790M mutation IC50” value in test [3] is “A (IC50 value for the indicated mutant below about 100 nM)”.
As for `C#Cc1cnc(Nc2cc(NC(=O)C=C)c(N(C)CCN(C)C)cc2OC)nc1-c1cn2c3c(cccc13)CCC2` [Example 31, N-(5-((4-(5,6-dihydro-4H-pyrrolo[3,2,1-ij]quinolin-1-yl)-5-ethynylpyrimidin-2-yl)amino)-2-((2-(dimethylamino)ethyl)(methyl)amino)-4-methoxyphenyl)acrylamide], the IC50 in test [1], in test [2] and in test [4] was < 0.1 µM each time. Moreover, the “EGFR exon 19 deletion and exon 20 T790M mutation IC50” value in test [3] was “A (IC50 value for the indicated mutant below about 100 nM)”.
For the compound `C=CC(=O)Nc1cc(Nc2ncc(NC(=O)CC)c(-c3cn4c5c(cccc35)CCC4)n2)c(OC)cc1N(C)CCN(C)C` [Example 91], the IC50 in test [1] is 0.1 to 0.5 µM; in test [2], < 0.1 µM; in test [4], < 0.1 µM. The “EGFR exon 19 deletion and exon 20 T790M mutation IC50” value in test [3] is “A (IC50 value for the indicated mutant below about 100 nM)”.
Take `C=CC(=O)Nc1cc(Nc2ncc(C(=O)OC)c(-c3cn4c5c(cccc35)CCC4)n2)c(OC)cc1N(C)CC1CCCN1C` (stereo not shown) [Example 89]: the IC50 in test [1], in test [2] and in test [4] was < 0.1 µM each time. The “EGFR exon 19 deletion and exon 20 T790M mutation IC50” value in test [3] is reported as “A (IC50 value for the indicated mutant below about 100 nM)”.
As for `C=CC(=O)Nc1cc(Nc2ncc(N(C)S(C)(=O)=O)c(-c3cn4c5c(cccc35)CCC4)n2)c(OC)cc1N(C)CCN(C)C` [Example 59, N-(5-((4-(5,6-dihydro-4H-pyrrolo[3,2,1-ij]quinolin-1-yl)-5-(N-methylmethylsulfonamido)pyrimidin-2-yl)amino)-2-((2-(dimethylamino)ethyl)(methyl)amino)-4-methoxyphenyl)acrylamide], the IC50 in test [1], in test [2] and in test [4] was > 1 µM in each case. The “EGFR exon 19 deletion and exon 20 T790M mutation IC50” value in test [3] is “D (IC50 value for the indicated mutant greater than about 1 μM)”.
